Each compound was assayed against WDR5 (Δ23, residues 24-334) (Homo sapiens, UniProt P61964) (assay: biochemical). Conditions: Kd (M), FPA-based binding affinity at the WDR5 WIN site; IC50 converted to Kd by modified Cheng-Prusoff equation; average of two experiments.

| Kd [M] | Structure (SMILES) |
| --- | --- |
| 2.3e-08 | COc1cc(C(=O)NCc2cc(-c3cn4c(n3)CCC4)ccc2N2CCOCC2C)ccc1C (stereo not drawn) [B203] |
| 2.95e-07 | COc1cccc(C(=O)N(Cc2cccc(-c3cn4c(n3)CCC4)c2)CC2CCCC2)c1 [B41] |
| 3.32e-06 | CC1CN(c2ccc(-c3cn4c(n3)CCC4)cc2CNC(=O)Cc2ccc(Cl)c(Cl)c2)CC(C)O1 (stereo not drawn) [B165] |
| 4.91e-07 | CCOc1cccc(C(=O)N(Cc2cccc(-c3cn4c(n3)CCC4)c2)CC2CC2)c1 [B79] |
| 3.24e-07 | COc1cccc(NC(=O)N(C)Cc2cccc(-c3cn4c(n3)CCC4)c2)c1 [B31] |
| 1.17e-07 | CC(C)C(NC(=O)Cc1ccc(F)c(Cl)c1)c1cccc(-c2cn3c(n2)CCC3)c1 (stereo not drawn) [B221] |
| 1.7e-08 | CCC(NC(=O)c1ccc(C)c(OC)c1)c1cccc(-c2cn3c(n2)CCC3)c1 (stereo not drawn) [B215] |
| 2.25e-07 | CN(C)C(=O)CCC(=O)NCc1cccc(-c2cn3c(n2)CCC3)c1 [B124] |
| 1.48e-07 | CCOc1cccc(C(=O)NCc2cccc(-c3cn4c(n3)CCC4)c2)c1 [B78] |
| 2e-08 | O=C(Cc1ccc(Cl)c(Cl)c1)NCc1cc(-c2cn3c(n2)CCC3)ccc1-c1ccccc1 [B111] |
| 2.3e-08 | COc1cc(C(=O)NC(C)c2cccc(-c3cn4c(n3)CCC4)c2)ccc1C (stereo not drawn) [B201] |
| 2.78e-05 | Cn1cc(CC(=O)NCc2cccc(-c3cn4c(n3)CCC4)c2)c2ccccc21 [B121] |
| 8.75e-07 | O=C(Cc1cccc(Cl)c1Cl)NCc1cccc(-c2cn3c(n2)CCC3)c1 [B149] |
| 9.24e-07 | O=C(NCc1cccc(-c2cn3c(n2)CCC3)c1)c1cnco1 [B170] |
| 1.14e-06 | COc1ccc(C(=O)N(Cc2cccc(-c3cn4c(n3)CCC4)c2)C2CC2)cc1OC [B53] |
| 6.8e-08 | CC(=O)N1CCCC(C(=O)NCc2cc(-c3cn4c(n3)CCC4)ccc2N2CCOCC2)C1 (stereo not drawn) [B156] |
| 5e-06 | O=C(NCc1cccc(-c2cn3c(n2)CCC3)c1)c1ccc(F)cc1 [B3] |
| 1.85e-06 | COc1cccc(C(=O)N(CC2CC2)C(C)c2cccc(-c3cn4c(n3)CCC4)c2)c1 (stereo not drawn) [B191] |

| Kd [M] | Structure (SMILES) |
| --- | --- |
| 7.51e-07 | COc1ccc(C(=O)N(Cc2cccc(-c3cn4c(n3)CCC4)c2)Cc2ccc(F)c(F)c2)cc1OC [B63] |
| 3e-09 | CS(=O)(=O)N1CCCC(C(=O)NCc2cccc(-c3cn4c(n3)CCC4)c2)C1 (stereo not drawn) [B186] |
| 3.63e-06 | O=C(CC1CCCCC1)NCc1cccc(-c2cn3c(n2)CCC3)c1 [B20] |
| 2.85e-06 | COc1cccc(C(=O)N(Cc2cccc(-c3cn4c(n3)CCC4)c2)CC(C)C)c1 [B85] |
| 1e-08 | CC(=O)N1CC(CC(=O)NCc2cccc(-c3cn4c(n3)CCC4)c2)C1 [B141] |
| 3.05e-07 | COC(=O)c1cc(CN(CC2CC2)C(=O)c2ccc(OC)c(OC)c2)cc(-c2cn3c(n2)CCC3)c1 [B69] |
| 1e-05 | CCC(=O)N1CCCC(C(=O)NCc2cccc(-c3cn4c(n3)CCC4)c2)C1 (stereo not drawn) [B181] |
| 2.96e-05 | Cc1cc(C(=O)N(Cc2cccc(-c3cn4c(n3)CCC4)c2)CC2CC2)ccc1Cl [B44] |
| 2.71e-06 | O=C(NCc1ccccc1)NCc1cccc(-c2cn3c(n2)CCC3)c1 [B34] |
| 1.84e-07 | COc1cccc(C(=O)NCc2cc(-c3cn4c(n3)CCC4)ccc2N2CCOCC2)c1 [B139] |
| 1.25e-07 | COc1ccc(C(=O)N(Cc2cc(Cl)cc(-c3cn4c(n3)CCC4)c2)CC2CC2)cc1OC [B46] |
| 3.2e-08 | CCC(NC(=O)Cc1ccc(F)c(Cl)c1)c1cccc(-c2cn3c(n2)CCC3)c1 (stereo not drawn) [B217] |
| 4.04e-06 | COc1cc(C(=O)N(Cc2cc(-c3cn4c(n3)CCC4)ccc2N2CCOCC2)CC2CC2)ccc1C [B200] |
| 1e-05 | O=C(Cc1ccc(Cl)c(Cl)c1)NCc1cc(-c2cn3c(n2)CCC3)ccc1OC1CCCC1 [B109] |
| 8.9e-07 | COc1cccc(CC(=O)NCc2cccc(-c3cn4c(n3)CCC4)c2)c1 [B88] |
| 7.6e-08 | O=C(Cc1ccc(Cl)c(Cl)c1)NCc1cc(-c2cn3c(n2)CCC3)ccc1N1CCCC1 [B118] |
| 6.45e-07 | C[C@H](C(=O)N(Cc1cccc(-c2cn3c(n2)CCC3)c1)CC1CC1)c1ccccc1 [B61] |
| 9.1e-08 | COc1cccc(CCC(=O)NCc2cccc(-c3cn4c(n3)CCC4)c2)c1 [B157] |
